Assays:
Assay in all cases: IA-DTB cysteine engagement
Assay type in all cases: binding
Settings in all cases: 22Rv1 cells, 20 μM probe, 1 h, relative to DMSO
[1] = target: T1, EPHX4_C287 (Homo sapiens, UniProt Q8IUS5)
T1 construct: endogenous in cells; host or cells: 22Rv1
T1 sequence (Q8IUS5 1-362): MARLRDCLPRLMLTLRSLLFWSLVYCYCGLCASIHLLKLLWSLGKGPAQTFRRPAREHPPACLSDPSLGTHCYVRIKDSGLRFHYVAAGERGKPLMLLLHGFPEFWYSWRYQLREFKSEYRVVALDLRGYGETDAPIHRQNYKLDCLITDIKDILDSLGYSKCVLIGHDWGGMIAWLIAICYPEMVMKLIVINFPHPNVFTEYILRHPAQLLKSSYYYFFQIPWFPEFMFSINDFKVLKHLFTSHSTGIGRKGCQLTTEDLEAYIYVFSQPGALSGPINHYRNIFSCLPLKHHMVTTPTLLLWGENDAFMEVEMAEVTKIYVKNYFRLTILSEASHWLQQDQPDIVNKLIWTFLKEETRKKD
Outline: (§1)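 In-situ probe treatment of cells; lysate 2 mg/mL, IA-DTB 1 h RT; MeOH/CHCl3 precipitation, DTT/iodoacetamide, trypsin; streptavidin enrichment; TMT labeling, high-pH fractionation. Ratio = TMT reporter intensity / mean DMSO channels, median-normalized.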

[2] = target: T2, LMNA_C570 (Homo sapiens, UniProt P02545)
T2 construct: endogenous in cells; host or cells: 22Rv1
T2 sequence (P02545 1-664): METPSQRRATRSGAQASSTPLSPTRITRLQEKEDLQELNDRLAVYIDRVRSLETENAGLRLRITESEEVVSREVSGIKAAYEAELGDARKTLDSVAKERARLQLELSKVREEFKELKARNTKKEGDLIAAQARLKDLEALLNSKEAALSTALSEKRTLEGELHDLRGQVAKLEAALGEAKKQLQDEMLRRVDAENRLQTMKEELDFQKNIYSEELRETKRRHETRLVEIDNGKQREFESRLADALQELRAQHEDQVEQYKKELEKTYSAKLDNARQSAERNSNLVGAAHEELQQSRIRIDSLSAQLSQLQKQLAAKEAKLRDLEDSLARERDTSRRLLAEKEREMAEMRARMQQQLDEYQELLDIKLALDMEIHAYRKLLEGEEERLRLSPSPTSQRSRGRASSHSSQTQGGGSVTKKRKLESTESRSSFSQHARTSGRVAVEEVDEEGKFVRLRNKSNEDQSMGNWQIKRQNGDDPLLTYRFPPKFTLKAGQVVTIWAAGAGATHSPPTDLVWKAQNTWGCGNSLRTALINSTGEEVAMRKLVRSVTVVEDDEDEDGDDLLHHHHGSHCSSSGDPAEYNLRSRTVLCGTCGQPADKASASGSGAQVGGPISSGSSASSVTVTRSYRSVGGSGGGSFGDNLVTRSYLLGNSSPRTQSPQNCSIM
Outline: as §1

[3] = target: T3, RAB40B_C77 (Homo sapiens, UniProt Q12829)
T3 construct: endogenous in cells; host or cells: 22Rv1
T3 sequence (Q12829 1-278): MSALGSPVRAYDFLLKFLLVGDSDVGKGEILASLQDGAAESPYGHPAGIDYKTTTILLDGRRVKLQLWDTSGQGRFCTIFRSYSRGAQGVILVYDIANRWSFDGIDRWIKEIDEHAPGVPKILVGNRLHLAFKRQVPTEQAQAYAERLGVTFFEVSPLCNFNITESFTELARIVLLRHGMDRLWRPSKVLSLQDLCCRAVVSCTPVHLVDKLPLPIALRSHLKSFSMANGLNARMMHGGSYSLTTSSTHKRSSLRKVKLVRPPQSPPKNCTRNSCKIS
Outline: as §1

[4] = target: T4, SRC_C280 (Homo sapiens, UniProt P12931)
T4 construct: endogenous in cells; host or cells: 22Rv1
Outline: as §1

T4 sequence (P12931 whole entry): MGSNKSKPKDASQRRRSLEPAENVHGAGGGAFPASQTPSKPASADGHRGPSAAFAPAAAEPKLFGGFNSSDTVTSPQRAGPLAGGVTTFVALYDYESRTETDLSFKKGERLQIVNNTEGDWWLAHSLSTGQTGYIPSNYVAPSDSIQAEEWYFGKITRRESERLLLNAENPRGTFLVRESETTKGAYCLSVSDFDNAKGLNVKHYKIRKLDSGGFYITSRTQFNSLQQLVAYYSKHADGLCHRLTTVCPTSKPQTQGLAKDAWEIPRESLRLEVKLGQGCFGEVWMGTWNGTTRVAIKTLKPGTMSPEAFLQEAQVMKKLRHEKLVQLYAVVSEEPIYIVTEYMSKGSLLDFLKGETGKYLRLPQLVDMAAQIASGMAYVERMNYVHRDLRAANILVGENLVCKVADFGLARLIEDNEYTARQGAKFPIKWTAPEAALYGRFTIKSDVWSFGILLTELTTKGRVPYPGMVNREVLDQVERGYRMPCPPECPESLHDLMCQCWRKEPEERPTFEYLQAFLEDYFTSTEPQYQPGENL

Row | % engagement EPHX4_C287 [1] [%] | % engagement LMNA_C570 [2] [%] | % engagement RAB40B_C77 [3] [%] | % engagement SRC_C280 [4] [%] | SMILES
1 | 23.5 | 75 | 100 | 17.75 | C=CC(=O)N1C[C@@H](c2ccc(Br)cc2)[C@H]1C(=O)Nc1cccc2cccnc12 [MY-1A, (2S,3R)-1-acryloyl-3-(4-bromophenyl)-N-(quinolin-8-yl)azetidine-2-carboxamide]
2 | 44.5 | 70.5 | 100 | 92.25 | C=CC(=O)N1C[C@H](c2ccc(Br)cc2)[C@@H]1C(=O)Nc1cccc2cccnc12 [MY-1B, (2R,3S)-1-acryloyl-3-(4-bromophenyl)-N-(quinolin-8-yl)azetidine-2-carboxamide]
3 | 86.5 | 70.5 | 12.5 | 64 | C=CC(=O)N1C[C@H](c2ccc(Br)cc2)[C@H]1C(=O)Nc1cccc2cccnc12 [MY-3B, (2S,3S)-1-acryloyl-3-(4-bromophenyl)-N-(quinolin-8-yl)azetidine-2-carboxamide]
4 | 28 | 75.5 | −39 | 2 | C=CC(=O)N1C[C@H](c2ccc(Br)cc2)[C@H]1C(=O)Nc1cccc2cccnc12 [MY-3A, (2S,3S)-1-acryloyl-3-(4-bromophenyl)-N-(quinolin-8-yl)azetidine-2-carboxamide]

From patent US20250034216A1, “STEREOSELECTIVE COVALENT LIGANDS FOR ONCOGENIC AND IMMUNOLOGICAL PROTEINS” (The Scripps Research Institute, priority 2021, published 2025)
